This note sets out measurements from ChEMBL document CHEMBL3792317, “Novel tetrazoloquinoline-rhodanine conjugates: Highly efficient synthesis and biological evaluation” (Bioorg Med Chem Lett, 2016).

Values after ≈ are worked out from the molar mass of the structure shown.

Data set [1] concerns Mycobacterium bovis BCG str. ATCC 35743. Kind of data set: Antitubercular activity against dormant Mycobacterium bovis BCG ATCC 35743 at 30 ug/ml incubated for 40 mins by XTT Reduction Menadione Assay. In kind it is functional.
Data set [2] concerns Mycobacterium tuberculosis. The experiment in a line: Antitubercular activity against Mycobacterium tuberculosis H37Ra ATCC 25177 at 30 ug/ml incubated for 40 mins by XTT Reduction Menadione Assay. In kind it is functional. The note with it: H37Ra ATCC 25177, 40 min, read-out: GI.
Data set [3] relates to Escherichia coli. Kind of data set: Antibacterial activity against Escherichia coli after 18 hrs by broth dilution method. The format is functional.
The subject of data set [4] is Mycobacterium tuberculosis. Kind of data set: Antitubercular activity against Mycobacterium tuberculosis H37Ra ATCC 25177 incubated for 40 mins by XTT Reduction Menadione Assay. In kind it is functional. The following applies: H37Ra ATCC 25177, 40 min.
Data set [5] concerns Pseudomonas fluorescens. The experiment in a line: Antibacterial activity against Pseudomonas fluorescens after 18 hrs by broth dilution method. The format is functional.
Data set [6] relates to Mycobacterium bovis BCG str. ATCC 35743. The experiment in a line: Antitubercular activity against dormant Mycobacterium bovis BCG ATCC 35743 at 10 ug/ml incubated for 40 mins by XTT Reduction Menadione Assay. The format is functional.
Data set [7] has as its system Mycobacterium tuberculosis. The experiment in a line: Antitubercular activity against Mycobacterium tuberculosis H37Ra ATCC 25177 at 3 ug/ml incubated for 40 mins by XTT Reduction Menadione Assay. The note with it: H37Ra ATCC 25177, 40 min, read-out: GI. In kind it is functional.
In data set [8] the test system is Staphylococcus aureus. Kind of data set: Antibacterial activity against Staphylococcus aureus after 18 hrs by broth dilution method. In kind it is functional.
For data set [9], the system named is Aspergillus flavus. The experiment in a line: Antifungal activity against Aspergillus flavus NCIM 539 after 48 hrs by agar cup plate method. In kind it is functional. The note with it: NCIM 539, 48 h.
In data set [10] the test system is Mycobacterium tuberculosis. Kind of data set: Antitubercular activity against Mycobacterium tuberculosis H37Ra ATCC 25177 at 10 ug/ml incubated for 40 mins by XTT Reduction Menadione Assay. The format is functional. The note with it: H37Ra ATCC 25177, 40 min, read-out: GI.
In data set [11] the test system is Fusarium oxysporum. The experiment in a line: Antifungal activity against Fusarium oxysporum NCIM 1332 after 48 hrs by agar cup plate method. The format is functional. The note with it: NCIM 1332, 48 h.
The test system of data set [12] is Bacillus subtilis. The experiment in a line: Antibacterial activity against Bacillus subtilis after 18 hrs by broth dilution method. The format is functional.
In data set [13] the test system is Candida albicans. Kind of data set: Antifungal activity against Candida albicans NCIM 3471 after 48 hrs by agar cup plate method. In kind it is functional. The following applies: NCIM 3471, 48 h.
Data set [14] deals with Mycobacterium bovis BCG str. ATCC 35743. The experiment in a line: Antitubercular activity against dormant Mycobacterium bovis BCG ATCC 35743 at 3 ug/ml incubated for 40 mins by XTT Reduction Menadione Assay. In kind it is functional.
Data set [15] in a line: Antitubercular activity against Mycobacterium bovis BCG ATCC 35743 incubated for 40 mins by XTT Reduction Menadione Assay. In kind it is functional, Mycobacterium bovis BCG str. ATCC 35743. The following applies: Mycobacterium tuberculosis variant bovis BCG, ATCC 35743, 40 min.
Data set [16] relates to Aspergillus niger. The experiment in a line: Antifungal activity against Aspergillus niger NCIM 1196 after 48 hrs by agar cup plate method. The format is functional. The note with it: NCIM 1196, 48 h.
In data set [17] the test system is Cryptococcus neoformans. The experiment in a line: Antifungal activity against Cryptococcus neoformans NCIM 576 after 48 hrs by agar cup plate method. The note with it: NCIM 576, 48 h. The format is functional.
The subject of data set [18] is A549. Kind of data set: (§1) Cytotoxicity against human A549 cells after 48 hrs by MTT assay. In kind it is cell-based. The note with it: a549, 48 h.
Data set [19] is described as follows: as §1. The format is cell-based. The note with it: A549 cells.
The subject of data set [20] is HeLa. Kind of data set: (§2) Cytotoxicity against human HeLa cells after 48 hrs by MTT assay. The format is cell-based. The note with it: hela, 48 h.
Data set [21] can be described thus: as §2. The format is cell-based. The following applies: HeLa cells.
Data set [22] can be described thus: Cytotoxicity against human THP1 cells after 48 hrs by MTT assay. In kind it is cell-based, THP-1. The note with it: for GI50 at 48 h: THP1 cells; for GI90: thp-1, 48 h.
Data set [23] is described as follows: Cytotoxicity against human PANC1 cells after 48 hrs by MTT assay. The format is cell-based, PANC-1. The note with it: for GI50 at 48 h: PANC1 cells; for GI90: panc-1, 48 h.
Data set [24] deals with Mycobacterium tuberculosis. Kind of data set: Antitubercular activity against active Mycobacterium tuberculosis H37Ra ATCC 25177 incubated for 40 mins by XTT Reduction Menadione Assay. In kind it is functional. The following applies: H37Ra ATCC 25177, 40 min.
In data set [25] the test system is Mycobacterium tuberculosis. Kind of data set: Antitubercular activity against dormant Mycobacterium tuberculosis H37Ra ATCC 25177 incubated for 40 mins by XTT Reduction Menadione Assay. In kind it is functional. The following applies: H37Ra ATCC 25177, 40 min.

Turning to `Cc1cccc2cc(/C=C3\SC(=S)N(CC(=O)O)C3=O)c3nnnn3c12`, the growth inhibition (GI) is -58.8% in [1], -46.2% in data set [6] and -41.4% in data set [14]. For the same compound, in data set [2], the inhibition of growth at 30 µg/mL came to 28.2%. Further, the MIC was 149 mg/L (≈ 387 µM) in [3]; 93.2 mg/L (≈ 242 µM) in [4]; 162 mg/L (≈ 420 µM) in data set [5]; 106 mg/L (≈ 274 µM) in data set [8]; 50 mg/L (≈ 130 µM) in data set [9]; 50 mg/L (≈ 130 µM) in data set [11]. The MIC in data set [12] amounted to 135 mg/L (≈ 351 µM); in [13], 25 mg/L (≈ 64.9 µM); in data set [15], 86 mg/L (≈ 223 µM); in data set [16] it was 100 mg/L (≈ 259 µM); in data set [17] it was 125 mg/L (≈ 324 µM). Further, the inhibition of growth at 3 µg/mL in data set [7] worked out at 44.5%. In data set [10], the inhibition of growth at 10 µg/mL is 36.8%.

In the case of `Cc1ccc2c(c1)cc(/C=C1\SC(=S)N(CC(=O)O)C1=O)c1nnnn12`, the growth inhibition (GI) in data set [1] is -14.8%; in data set [6], 35.3%; in data set [14] it was 20.2%. The GI90 in [18], in data set [20], in data set [22] and in data set [23] was over 100 mg/L in each case. Besides, the GI50 at 48 h in [19], in data set [21], in [22] and in [23] was over 100 mg/L throughout. The inhibition of growth at 30 µg/mL in data set [2] stood at 36.7%. The minimum inhibitory concentration (MIC) in data set [4] came out at 88.1 mg/L (≈ 229 µM); in data set [9], 50 mg/L (≈ 130 µM); in data set [11], 100 mg/L (≈ 259 µM); in data set [13] it was 25 mg/L (≈ 64.9 µM); in data set [15], 84.4 mg/L (≈ 219 µM); in data set [16], 150 mg/L (≈ 389 µM). For the same compound, the MIC in data set [17] amounted to 100 mg/L (≈ 259 µM). The inhibition of growth at 3 µg/mL in data set [7] came out at 17.5%. In [10], the inhibition of growth at 10 µg/mL amounted to 16.3%. For the same compound, the IC90 in [24] worked out at 49.2 mg/L (≈ 128 µM); in data set [25] it was 88.1 mg/L (≈ 229 µM).

As to `CC(=O)O[C@H]1C(=O)[C@@]2(C)[C@H]([C@H](OC(=O)c3ccccc3)[C@]3(O)C[C@H](OC(=O)[C@H](O)[C@@H](NC(=O)c4ccccc4)c4ccccc4)C(C)=C1C3(C)C)[C@]1(OC(C)=O)CO[C@@H]1C[C@@H]2O` [PACLITAXEL], the GI90 in data set [18] was 0.038 mg/L (≈ 0.0445 µM); in data set [20], 0.075 mg/L (≈ 0.0878 µM); in data set [22] it was 5.814 mg/L (≈ 6.81 µM); in data set [23] it was 5.715 mg/L (≈ 6.69 µM). For the same compound, the GI50 at 48 h in data set [19] is under 0.004 mg/L; in [21], 0.0048 mg/L (≈ 0.00562 µM); in data set [22], 0.137 mg/L (≈ 0.161 µM); in data set [23], 0.128 mg/L (≈ 0.15 µM).

Consider `NC[C@H]1O[C@H](O[C@H]2[C@H](O)[C@@H](O[C@H]3O[C@H](CO)[C@@H](O)[C@H](N)[C@H]3O)[C@H](N)C[C@@H]2N)[C@H](O)[C@@H](O)[C@@H]1O` [KANAMYCIN], for which the MIC is 1.62 mg/L (≈ 3.34 µM) in [3], 0.49 mg/L (≈ 1.01 µM) in data set [5], over 30 mg/L in data set [8] and 1.35 mg/L (≈ 2.79 µM) in [12].

Consider `CC1(C)S[C@@H]2[C@H](NC(=O)[C@H](N)c3ccccc3)C(=O)N2[C@H]1C(=O)O` [AMPICILLIN], for which the MIC in data set [3] amounted to 1.46 mg/L (≈ 4.18 µM); in data set [5], 4.36 mg/L (≈ 12.5 µM); in [8], 1 mg/L (≈ 2.86 µM); in data set [12], 10.3 mg/L (≈ 29.5 µM).

`O=C(O)CN1C(=O)/C(=C/c2cc3ccccc3n3nnnc23)SC1=S`: the growth inhibition (GI) in data set [1] is -12.2%; in [6], -28.9%; in data set [14] it was -52.6%. The inhibition of growth at 30 µg/mL in data set [2] was found to be 1.49%. For the same compound, the MIC in data set [3] was 178 mg/L (≈ 480 µM); in data set [4], over 250 mg/L; in [5] it was 182 mg/L (≈ 489 µM); in [8] it was 151 mg/L (≈ 408 µM); in data set [9] it was 125 mg/L (≈ 337 µM); in data set [11], 50 mg/L (≈ 135 µM). For the same compound, the MIC was 124 mg/L (≈ 333 µM) in data set [12]; 50 mg/L (≈ 135 µM) in data set [13]; over 250 mg/L in [15]; 125 mg/L (≈ 337 µM) in [16]; 150 mg/L (≈ 404 µM) in data set [17]. In data set [7], the inhibition of growth at 3 µg/mL amounted to 12.2%. In addition, in data set [10], the inhibition of growth at 10 µg/mL was -2.04%.

Consider `COc1ccc2cc(/C=C3\SC(=S)N(CCC(=O)O)C3=O)c3nnnn3c2c1`, for which the growth inhibition (GI) stood at 19% in data set [1], 20.5% in data set [6] and 18.8% in data set [14]. The inhibition of growth at 30 µg/mL in data set [2] is 12.5%. The MIC in [4] is over 250 mg/L; in data set [9] it was 125 mg/L (≈ 301 µM); in data set [11], 150 mg/L (≈ 361 µM); in data set [13] it was 100 mg/L (≈ 241 µM); in [15], over 250 mg/L; in data set [16], 50 mg/L (≈ 120 µM). In data set [17], this compound returned an MIC of 150 mg/L (≈ 361 µM). The inhibition of growth at 3 µg/mL in data set [7] worked out at 0.02%. In [10], the inhibition of growth at 10 µg/mL stood at 21.7%.
